Test results as given in patent publication US8552013B2, “Heterocyclic compounds based on N6-substituted adenine, methods of their preparation, their use for preparation of drugs, cosmetic preparations and growth regulators, pharmaceutical preparations, cosmetic preparations and growth regulators containing these compounds” (USTAV Experimentalni Botaniky Akademie Ved Ceske Republiky, priority 2001, dated 2013).

Experiments:
[1] = tested on: Triticum aestivum cv. Hereward leaf tips; experiment: Retention of chlorophyll in excised wheat leaf tips; format: in vivo; details: chlorophyll retention at the concentration with highest activity
Method: Seeds of winter wheat, Triticum aestivum cv. Hereward, were washed under running water for 24 hours and then sown on vermiculite soaked with Knop's solution. They were placed in the grown chamber at 25° C. with a 16/8 h light period at 50 μmol.m^−2.s^−1. After 7 days, the first leaf was fully developed and the second leaf had started to grow. A tip section of the first leaf, approximately 35 mm long, was removed from 5 seedlings and trimmed slightly to a combined weight of 100 mg. The basal ends of the five leaf tips were placed in the wells of a microtiter polystyrene plate containing 150 μl of a cytokinin solution each. The entire plate was inserted into a plastic box lined with paper tissues soaked in distilled water to prevent leaf sections from drying out. After a 96 h incubation in the dark at 25° C., the leaves were removed and chlorophyll extracted by heating at 80° C. for 10 min in 5 ml of 80% ethanol (v/v). The sample volume was then restored to 5 ml by the addition of 80% ethanol (v/v). The absorbency of the extract was recorded at 665 nm. In addition, chlorophyll extracts from fresh leaves and leaf tips incubated in deionised water were measured. From the obtained data, the concentration with highest activity was selected for each compound tested. Relative activity of the compound at this concentration was calculated (Tab. 6). The activity obtained for 10^−4 M 6-benzylaminopurine (BAP) was postulated as 100%. The values shown are means of five replicates and the whole experiment was repeated twice. The cytokinins to be tested were dissolved in dimethylsulfoxide (DMSO) and the solution brought up to 10^−3M with distilled water. This stock was further diluted in distilled water to concentrations ranging from 10^−8M to 10^−4M.

[2] = tested on: human diploid fibroblasts (HCA cells); experiment: Senescence, beta-galactosidase staining of human diploid fibroblasts; format: cell-based; details: for SENESCENT CELLS (%) HCA25: passage 25; for SENESCENT CELLS (%) HCA45: passage 45; for SENESCENT CELLS (%) HCA80: passage 80
Method: In this example, human diploid fibroblasts (HCA cells of various passage levels: passage 25—designated HCA25; passage 45—designated HCA45; passage 80—designated HCA80) were stained for β-galactosidase activity. The medium used for cell cultivation was removed, the cells were washed twice in […], and fixed in 2-3 ml of fixing solution comprised of a 2% formaldehyde and 0.2% glutaraldehyde in PBS. The cells were incubated at room temperature for 5 minutes, then washed twice with PBS. The cells were subsequently incubated at 37° C. (without CO2) for 1 to 16 hours in 2-3 ml of a solution comprising potassium ferricyanide (5 mM), potassium ferrocyanide (5 mM), MgCl2 (2 mM), X-gal (5-bromo-4-chloro-3-indolyl-β-D-galactopyranoside) (1 mg/ml), in citric/phosphate buffer, pH 6.0). […] In this experiment, senescent cells, but not other cells were stained blue due to the action of β-galactosidase on the substrate (FIG. 4).

[3] = tested on: Amaranthus caudatus cotyledon/hypocotyl explants; experiment: Amaranthus bioassay, betacyanin content; format: in vivo; details: betacyanin content at the concentration with highest activity
Method: Standard Amaranthus bioassay was performed with several modifications. The seeds of Amaranthus caudatus var. atropurpurea were surface-sterilised in 10% N-chlorobenzenesulfonamide (w/v) for 10 min and washed 5 times in deionized water. They were placed in 14 cm Petri dishes containing paper tissues saturated with deionized water. After 72 h of cultivation at 25° C. in darkness, the roots of the seedlings were cut off. The explants, consisting of two cotyledons and hypocotyls, were placed in 5 cm Petri dishes on two layers of filter paper soaked in 1 ml of incubation medium containing 10 μmol NA2HPO4-KH2PO4, pH 6.8, 5 μmol tyrosine and the cytokinin to be tested. There were 20 explants per dish. The procedure was carried out under a green safe light in a darkroom. After a 48 h of incubation at 25° C. in darkness, betacyanin was extracted by freezing the explants in 4 ml […] acetic acid. The concentration of betacyanin was determined by comparing the absorbance at 537 nm and 620 nm as follows: ΔA=[…] nm-A620 nm. From the obtained data, the concentration with highest activity was selected for each compound tested. Relative activity of the compound at this concentration was calculated (Tab. 6). […] The values shown in table 8 are means of five replicates and the entire test was repeated twice. The cytokinins to be tested were dissolved in dimethylsulfoxide (DMSO) and the solution brought up to 10^-3M with distilled water. This stock was further diluted in the respective media used for the biotest to concentrations ranging from 10^-8M to 10^-4M.

[4] = tested on: tobacco callus Nicotiana tabacum L. cv. Wisconsin 38; experiment: Cytokinin-dependent tobacco callus growth; format: cell-based; details: fresh callus weight at the concentration with highest activity
Method: Cytokinin-dependent tobacco callus Nicotiana tabacum L. cv. Wisconsin 38 was maintained at 25° C. in darkness on modified Murashige-Skoog medium, containing per 1 liter: 4 μmol nicotinic acid, 2.4 μmol pyridoxine hydrochloride, 1.2 μmol thiamine, 26.6 μmol glycine, 1.37 μmol glutamine, 1.8 μmol myo-inositol, 30 g of sucrose, 8 g of agar, 5.37 μmol α-naphtylacetic acid (NAA) and 0.5 μmol benzylaminopurine (BAP). Subcultivation was carried out every three weeks. Fourteen days before the bioassay, the callus tissue was transferred to the media without 6-benzylaminopurine (BAP). Biological activity was determined from the increase in fresh callus weight after four weeks of cultivation. Five replicates were prepared for each cytokinin concentration and the entire test was repeated twice. From the obtained data, the concentration with highest activity was selected for each compound tested. Relative activity of the compound at this concentration was calculated (Tab. 6). The activity obtained for 10^−4 M 6-benzylaminopurine (BAP) was postulated as 100%. The cytokinins to be tested were dissolved in dimethylsulfoxide (DMSO) and the solution brought up to 10^−3M with distilled water. This stock was further diluted in the respective media used for the biotest to concentrations ranging from 10^−8M to 10^−4M.

## CSc1nc(NCc2cccc(O)c2)c2[nH]cnc2n1 [2-methylthio-6-(3-hydroxybenzylamino)purine]
[1]
  Activity (%) [10^−4 mol · l^−1 BAP = 100%]: 50.5 (±23.5) %

## CC(=O)Oc1cccc(CNc2ncnc3nc[nH]c23)c1 [3-acetoxybenzylamino, 6-(3-acetoxybenzylamino)purine]
[2]
  SENESCENT CELLS (%) HCA25: 4%
  SENESCENT CELLS (%) HCA45: 6%
  SENESCENT CELLS (%) HCA80: 27%

## CC(=O)c1cccc(CNc2ncnc3nc[nH]c23)c1 [3-acetylbenzylamino, 6-(3-acetylbenzylamino)purine]
[2]
  SENESCENT CELLS (%) HCA25: 5%
  SENESCENT CELLS (%) HCA45: 5%
  SENESCENT CELLS (%) HCA80: 28%

## Nc1cc(CNc2ncnc3nc[nH]c23)ccc1Cl [3-amino-4-chlorobenzylamine, 6-(3-amino-4-chlorobenzylamino)purine]
[2]
  SENESCENT CELLS (%) HCA25: 5%
  SENESCENT CELLS (%) HCA45: 5%
  SENESCENT CELLS (%) HCA80: 22%

## O=C(O)c1cc(Nc2ncnc3nc[nH]c23)ccc1O [3-carboxy-4-hydroxyanilino, 6-(3-carboxy-4-hydroxyanilino)purine]
[2]
  SENESCENT CELLS (%) HCA25: 4%
  SENESCENT CELLS (%) HCA45: 2%
  SENESCENT CELLS (%) HCA80: 26%

## O=C(O)c1ccc(Nc2ncnc3nc[nH]c23)cc1Cl [3-chloro-4-carboxyanilino, 6-(3-chloro-4-carboxyanilino)purine]
[2]
  SENESCENT CELLS (%) HCA25: 5%
  SENESCENT CELLS (%) HCA45: 2%
  SENESCENT CELLS (%) HCA80: 25%

## COc1cccc(CNc2ncnc3nc[nH]c23)c1OC [6-(2,3-dimethoxybenzylamino)purine]
[1]
  Activity (%) [10^−4 mol · l^−1 BAP = 100%]: 109 (±5) %
[3]
  activity (%) [10^−5 mol · l^−1 BAP = 100%]: 22 (±3) %
[4]
  Activity (%) [10^−4 mol · l^−1 BAP = 100%]: 8.5 (±2) %

## Clc1ccc(CNc2ncnc3nc[nH]c23)c(Cl)c1 [6-(2,4-dichlorobenzylamino)purine]
[1]
  Activity (%) [10^−4 mol · l^−1 BAP = 100%]: 0%
[3]
  activity (%) [10^−5 mol · l^−1 BAP = 100%]: 19 (±8) %
[4]
  Activity (%) [10^−4 mol · l^−1 BAP = 100%]: 11 (±3) %

## COc1ccc(CNc2ncnc3nc[nH]c23)c(OC)c1 [6-(2,4-dimethoxybenzylamino)purine]
[1]
  Activity (%) [10^−4 mol · l^−1 BAP = 100%]: 26 (±11) %
[3]
  activity (%) [10^−5 mol · l^−1 BAP = 100%]: 12 (±2) %
[4]
  Activity (%) [10^−4 mol · l^−1 BAP = 100%]: 21 (±5) %

## Brc1ccccc1CNc1ncnc2nc[nH]c12 [6-(2-bromobenzylamino)purine]
[1]
  Activity (%) [10^−4 mol · l^−1 BAP = 100%]: 52 (±14) %
[3]
  activity (%) [10^−5 mol · l^−1 BAP = 100%]: 94 (±6) %
[4]
  Activity (%) [10^−4 mol · l^−1 BAP = 100%]: 102 (±5) %

## COc1cc(CNc2ncnc3nc[nH]c23)cc(OC)c1OC [6-(3,4,5-trimethoxybenzylamino)purine]
[1]
  Activity (%) [10^−4 mol · l^−1 BAP = 100%]: 25 (±2) %
[3]
  activity (%) [10^−5 mol · l^−1 BAP = 100%]: 2 (±2) %
[4]
  Activity (%) [10^−4 mol · l^−1 BAP = 100%]: 19 (±3) %

## COc1ccc(CNc2ncnc3nc[nH]c23)cc1OC [6-(3,4-dimethoxybenzylamino)purine]
[1]
  Activity (%) [10^−4 mol · l^−1 BAP = 100%]: 43 (±17) %
[3]
  activity (%) [10^−5 mol · l^−1 BAP = 100%]: 27 (±6) %

## c1ccc(Nc2ncnc3nc[nH]c23)cc1 [Anilino, 6-anilinopurine]
[2]
  SENESCENT CELLS (%) HCA25: 3%
  SENESCENT CELLS (%) HCA45: 4%
  SENESCENT CELLS (%) HCA80: 27%
